Where two headings read alike, the source gives them in different places.
Molecular target: T1, horseradish peroxidase (HRP) (Armoracia rusticana, UniProt P00433)
T1 sequence (P00433 31-353): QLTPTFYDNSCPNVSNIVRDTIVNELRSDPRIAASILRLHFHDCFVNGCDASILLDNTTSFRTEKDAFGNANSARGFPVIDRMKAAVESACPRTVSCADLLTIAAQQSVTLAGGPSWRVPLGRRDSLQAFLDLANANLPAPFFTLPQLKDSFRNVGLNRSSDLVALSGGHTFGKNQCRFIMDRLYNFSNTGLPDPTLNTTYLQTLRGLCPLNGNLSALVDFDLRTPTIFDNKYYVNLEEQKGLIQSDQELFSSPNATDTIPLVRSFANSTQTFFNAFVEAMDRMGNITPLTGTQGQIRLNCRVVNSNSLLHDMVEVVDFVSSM
Method: A standardized test procedure for measuring luminol light output has been established. To 0.5 ml of 50 mM borate buffer, pH 9.4, are added 0.5 ml of 40 mM luminol in 45 mM NaOH, pH 11.0; 0.5 ml of 4 mM hydrogen peroxide in 0.01M phosphate buffered saline (PBS), pH 7.0; 0.4 ml of deionized water; and 0.1 ml of 200 mU/ml horseradish peroxidase (HRP) to yield a final 2.0 ml volume containing; 10 mM luminol; 1 mM H2 O2; 12.5 mM borate buffer, pH 9.4; and 20 mU HRP in an aqueous solution having a final pH of 9.4. The enzyme HRP is added last, the solution mixed and relative intensity readings taken on an Ames Fluorocolorimeter (Miles Labs, Inc., Elkhart, IN) at various time points from 1 minute to 2 hours.
The chemical synthesis of luminol and other luminescent substrates use chemicals which can inhibit the catalysts used in luminescent reactions. Two of these inhibitory chemicals known to be used in luminol synthesis were added back to a luminescent reaction using the luminol prepared in Example 1 above.

Compound | Effect on luminescence yield in the reaction | % Reaction (hrp luminol luminescence, pH 9.4, 30 min) [%] | Amount in the luminol that can inhibit the production of light | Effect on luminescence yield in the reaction (in words)
N.N.O=S(=O)(O)O [Ammonium Sulfate, ammonium sulfate] | had no effect | 100 | – | –
NN.O=S(=O)(O)O [Hydrazine Sulfate, hydrazine sulfate] | – | – | greater than 100 ppm | drastically inhibits
ammonium sulfide | – | – | greater than 100 ppm | drastically inhibits

— patent US4743541A, “Luminescent substrate preparation and its use in specific binding assays” (priority 1985, dated 1988)
